{"source": "ChEMBL document CHEMBL1201862", "about": "“PubChem BioAssay data set” (2004)", "assay_in_all_cases": "DTP human tumour cell line panel, 48 h", "key": {"SK-OV-3": {"test_system": "SK-OV-3"}, "UACC-257": {"test_system": "UACC-257"}, "KM12": {"test_system": "KM12"}, "HOP-62": {"test_system": "HOP-62"}, "TK-10": {"test_system": "TK-10"}, "SN12C": {"test_system": "SN12C"}, "IGROV-1": {"test_system": "IGROV-1"}, "M14": {"test_system": "M14"}, "K562": {"test_system": "K562"}, "SF-268": {"test_system": "SF-268"}, "SNB-19": {"test_system": "SNB-19"}, "U-251": {"test_system": "U-251"}, "NCI-H226": {"test_system": "NCI-H226"}, "MDA-MB-231": {"test_system": "MDA-MB-231"}, "EKVX": {"test_system": "EKVX"}, "HCT-15": {"test_system": "HCT-15"}, "ACHN": {"test_system": "ACHN"}, "SK-MEL-2": {"test_system": "SK-MEL-2"}, "UO-31": {"test_system": "UO-31"}, "OVCAR-8": {"test_system": "OVCAR-8"}}, "note": "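A five-concentration, 48-hour dose response in 96-well plates underlies each endpoint, interpolated linearly between surrounding concentrations. At the GI50, growth is halved.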 The source made the active and inactive calls. No stated cut-off is given here; in the data, active = GI50 up to about 1.1 µM and inactive = higher."}
{"smiles": "Cc1cc(Cc2c(C)c(C)c(Cc3cc(C)cc(C(C)(C)C)c3O)c(C)c2C)c(O)c(C(C)(C)C)c1", "values": [{"measurement": "GI50", "setting": "SK-OV-3", "result": "> 100 µM (inactive)"}, {"measurement": "GI50", "setting": "UACC-257", "result": "> 100 µM (inactive)"}, {"measurement": "GI50", "setting": "KM12", "result": "> 100 µM (inactive)"}, {"measurement": "GI50", "setting": "HOP-62", "result": "> 100 µM (inactive)"}, {"measurement": "GI50", "setting": "TK-10", "result": "> 100 µM (inactive)"}, {"measurement": "GI50", "setting": "SN12C", "result": "> 100 µM (inactive)"}, {"measurement": "GI50", "setting": "IGROV-1", "result": "> 100 µM (inactive)"}, {"measurement": "GI50", "setting": "M14", "result": "> 100 µM (inactive)"}, {"measurement": "GI50", "setting": "K562", "result": "> 100 µM (inactive)"}, {"measurement": "GI50", "setting": "SF-268", "result": "> 100 µM (inactive)"}, {"measurement": "GI50", "setting": "SNB-19", "result": "> 100 µM (inactive)"}, {"measurement": "GI50", "setting": "U-251", "result": "> 100 µM (inactive)"}, {"measurement": "GI50", "setting": "NCI-H226", "result": "> 100 µM (inactive)"}, {"measurement": "GI50", "setting": "MDA-MB-231", "result": "> 100 µM (inactive)"}, {"measurement": "GI50", "setting": "EKVX", "result": "> 100 µM (inactive)"}, {"measurement": "GI50", "setting": "HCT-15", "result": "> 100", "unit": "µM"}, {"measurement": "GI50", "setting": "ACHN", "result": "> 100 µM (inactive)"}, {"measurement": "GI50", "setting": "SK-MEL-2", "result": "> 100 µM (inactive)"}, {"measurement": "GI50", "setting": "UO-31", "result": "> 100 µM (inactive)"}, {"measurement": "GI50", "setting": "OVCAR-8", "result": "> 100 µM (inactive)"}]}
{"smiles": "COc1nn(Cc2ccccn2)c2ccc([N+](=O)[O-])cc12", "values": [{"measurement": "GI50", "setting": "SK-OV-3", "result": "> 100 µM (inactive)"}, {"measurement": "GI50", "setting": "UACC-257", "result": "94 µM (inactive)"}, {"measurement": "GI50", "setting": "KM12", "result": "> 100 µM (inactive)"}, {"measurement": "GI50", "setting": "HOP-62", "result": "> 100 µM (inactive)"}, {"measurement": "GI50", "setting": "TK-10", "result": "53.1 µM (inactive)"}, {"measurement": "GI50", "setting": "SN12C", "result": "> 100 µM (inactive)"}, {"measurement": "GI50", "setting": "IGROV-1", "result": "35.1 µM (inactive)"}, {"measurement": "GI50", "setting": "M14", "result": "> 100 µM (inactive)"}, {"measurement": "GI50", "setting": "K562", "result": "31 µM (inactive)"}, {"measurement": "GI50", "setting": "SF-268", "result": "> 100 µM (inactive)"}, {"measurement": "GI50", "setting": "SNB-19", "result": "> 100 µM (inactive)"}, {"measurement": "GI50", "setting": "U-251", "result": "> 100 µM (inactive)"}, {"measurement": "GI50", "setting": "NCI-H226", "result": "85.9 µM (inactive)"}, {"measurement": "GI50", "setting": "MDA-MB-231", "result": "57.4 µM (inactive)"}, {"measurement": "GI50", "setting": "EKVX", "result": "56.1 µM (inactive)"}, {"measurement": "GI50", "setting": "HCT-15", "result": 62.7, "unit": "µM"}, {"measurement": "GI50", "setting": "ACHN", "result": "48.6 µM (inactive)"}, {"measurement": "GI50", "setting": "SK-MEL-2", "result": "51.1 µM (inactive)"}, {"measurement": "GI50", "setting": "UO-31", "result": "32.4 µM (inactive)"}, {"measurement": "GI50", "setting": "OVCAR-8", "result": "> 100 µM (inactive)"}]}
{"smiles": "O=[N+]([O-])C(/C=C(\\Cl)[N+](=O)[O-])=C(N1CCOCC1)N1CCOCC1", "values": [{"measurement": "GI50", "setting": "SK-OV-3", "result": "> 100 µM (inactive)"}, {"measurement": "GI50", "setting": "UACC-257", "result": "> 100 µM (inactive)"}, {"measurement": "GI50", "setting": "KM12", "result": "> 100 µM (inactive)"}, {"measurement": "GI50", "setting": "HOP-62", "result": "20.9 µM (inactive)"}, {"measurement": "GI50", "setting": "TK-10", "result": "47 µM (inactive)"}, {"measurement": "GI50", "setting": "SN12C", "result": "> 100 µM (inactive)"}, {"measurement": "GI50", "setting": "IGROV-1", "result": "> 100 µM (inactive)"}, {"measurement": "GI50", "setting": "M14", "result": "> 100 µM (inactive)"}, {"measurement": "GI50", "setting": "K562", "result": "18.3 µM (inactive)"}, {"measurement": "GI50", "setting": "SF-268", "result": "35.5 µM (inactive)"}, {"measurement": "GI50", "setting": "SNB-19", "result": "> 100 µM (inactive)"}, {"measurement": "GI50", "setting": "U-251", "result": "24.6 µM (inactive)"}, {"measurement": "GI50", "setting": "NCI-H226", "result": "> 100 µM (inactive)"}, {"measurement": "GI50", "setting": "MDA-MB-231", "result": "23.3 µM (inactive)"}, {"measurement": "GI50", "setting": "EKVX", "result": "> 100 µM (inactive)"}, {"measurement": "GI50", "setting": "HCT-15", "result": "> 100", "unit": "µM"}, {"measurement": "GI50", "setting": "ACHN", "result": "41.7 µM (inactive)"}, {"measurement": "GI50", "setting": "SK-MEL-2", "result": "> 100 µM (inactive)"}, {"measurement": "GI50", "setting": "UO-31", "result": "36.6 µM (inactive)"}, {"measurement": "GI50", "setting": "OVCAR-8", "result": "> 100 µM (inactive)"}]}
{"smiles": "C=CCCCC1CCCNC1=S", "note": "(stereo not given)", "values": [{"measurement": "GI50", "setting": "SK-OV-3", "result": "> 100 µM (inactive)"}, {"measurement": "GI50", "setting": "UACC-257", "result": "> 100 µM (inactive)"}, {"measurement": "GI50", "setting": "KM12", "result": "> 100 µM (inactive)"}, {"measurement": "GI50", "setting": "HOP-62", "result": "> 100 µM (inactive)"}, {"measurement": "GI50", "setting": "TK-10", "result": "> 100 µM (inactive)"}, {"measurement": "GI50", "setting": "SN12C", "result": "> 100 µM (inactive)"}, {"measurement": "GI50", "setting": "IGROV-1", "result": "> 100 µM (inactive)"}, {"measurement": "GI50", "setting": "M14", "result": "> 100 µM (inactive)"}, {"measurement": "GI50", "setting": "K562", "result": "> 100 µM (inactive)"}, {"measurement": "GI50", "setting": "SF-268", "result": "> 100 µM (inactive)"}, {"measurement": "GI50", "setting": "SNB-19", "result": "> 100 µM (inactive)"}, {"measurement": "GI50", "setting": "U-251", "result": "> 100 µM (inactive)"}, {"measurement": "GI50", "setting": "NCI-H226", "result": "> 100 µM (inactive)"}, {"measurement": "GI50", "setting": "MDA-MB-231", "result": "> 100 µM (inactive)"}, {"measurement": "GI50", "setting": "EKVX", "result": "> 100 µM (inactive)"}, {"measurement": "GI50", "setting": "HCT-15", "result": "> 100", "unit": "µM"}, {"measurement": "GI50", "setting": "ACHN", "result": "> 100 µM (inactive)"}, {"measurement": "GI50", "setting": "SK-MEL-2", "result": "> 100 µM (inactive)"}, {"measurement": "GI50", "setting": "UO-31", "result": "> 100 µM (inactive)"}, {"measurement": "GI50", "setting": "OVCAR-8", "result": "> 100 µM (inactive)"}]}
{"smiles": "CN1N=C(c2ccncc2)OC1c1cccc(F)c1", "note": "(stereo not given)", "values": [{"measurement": "GI50", "setting": "SK-OV-3", "result": "> 100 µM (inactive)"}, {"measurement": "GI50", "setting": "UACC-257", "result": "> 100 µM (inactive)"}, {"measurement": "GI50", "setting": "KM12", "result": "> 100 µM (inactive)"}, {"measurement": "GI50", "setting": "HOP-62", "result": "> 100 µM (inactive)"}, {"measurement": "GI50", "setting": "TK-10", "result": "> 100 µM (inactive)"}, {"measurement": "GI50", "setting": "SN12C", "result": "> 100 µM (inactive)"}, {"measurement": "GI50", "setting": "IGROV-1", "result": "> 100 µM (inactive)"}, {"measurement": "GI50", "setting": "M14", "result": "> 100 µM (inactive)"}, {"measurement": "GI50", "setting": "K562", "result": "> 100 µM (inactive)"}, {"measurement": "GI50", "setting": "SF-268", "result": "> 100 µM (inactive)"}, {"measurement": "GI50", "setting": "SNB-19", "result": "> 100 µM (inactive)"}, {"measurement": "GI50", "setting": "U-251", "result": "> 100 µM (inactive)"}, {"measurement": "GI50", "setting": "NCI-H226", "result": "68.5 µM (inactive)"}, {"measurement": "GI50", "setting": "MDA-MB-231", "result": "> 100 µM (inactive)"}, {"measurement": "GI50", "setting": "EKVX", "result": "> 100 µM (inactive)"}, {"measurement": "GI50", "setting": "HCT-15", "result": "> 100", "unit": "µM"}, {"measurement": "GI50", "setting": "ACHN", "result": "> 100 µM (inactive)"}, {"measurement": "GI50", "setting": "SK-MEL-2", "result": "> 100 µM (inactive)"}, {"measurement": "GI50", "setting": "UO-31", "result": "> 100 µM (inactive)"}, {"measurement": "GI50", "setting": "OVCAR-8", "result": "> 100 µM (inactive)"}]}
